In patent publication US20260146035A1, “FUSED BICYCLIC COMPOUNDS AND THEIR USE AS MER AND AXL INHIBITORS” (DONG-A ST CO., LTD., priority 2022, published 2026) one finds IC50 data, which are given here for 14 compounds.

Like-named read-outs stand apart in the source and are kept apart here.

For one assay, the target named is T1, human AXL (473-end) (Homo sapiens, UniProt P30530).
T1 construct: human AXL (473-end); purchased SignalChem, Canada
T1 sequence (P30530 473-894 limits assumed): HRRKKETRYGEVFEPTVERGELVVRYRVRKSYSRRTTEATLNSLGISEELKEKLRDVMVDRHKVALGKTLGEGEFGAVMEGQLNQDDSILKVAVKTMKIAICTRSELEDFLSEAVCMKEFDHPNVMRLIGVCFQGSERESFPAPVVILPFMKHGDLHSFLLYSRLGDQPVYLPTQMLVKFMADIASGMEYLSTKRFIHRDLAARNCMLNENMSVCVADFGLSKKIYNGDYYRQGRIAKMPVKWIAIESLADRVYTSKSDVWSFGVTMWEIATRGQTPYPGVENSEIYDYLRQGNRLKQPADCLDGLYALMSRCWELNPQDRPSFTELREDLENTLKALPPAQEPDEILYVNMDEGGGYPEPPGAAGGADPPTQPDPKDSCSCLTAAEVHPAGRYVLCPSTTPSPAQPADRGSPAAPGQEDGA
Briefly: HTRF kinase activity biochemical assay, AXL. To be noted: 10 μM ATP, 30 minutes pre-incubation. In general terms: In TR-FRET formats the signal depends on donor and acceptor labels being close together.

A further assay concerns the target T2, human MER (528-end) (Homo sapiens, UniProt Q12866).
T2 construct: human MER (528-end); purchased Camnabio, Japan
T2 sequence (Q12866 528-999 limits assumed): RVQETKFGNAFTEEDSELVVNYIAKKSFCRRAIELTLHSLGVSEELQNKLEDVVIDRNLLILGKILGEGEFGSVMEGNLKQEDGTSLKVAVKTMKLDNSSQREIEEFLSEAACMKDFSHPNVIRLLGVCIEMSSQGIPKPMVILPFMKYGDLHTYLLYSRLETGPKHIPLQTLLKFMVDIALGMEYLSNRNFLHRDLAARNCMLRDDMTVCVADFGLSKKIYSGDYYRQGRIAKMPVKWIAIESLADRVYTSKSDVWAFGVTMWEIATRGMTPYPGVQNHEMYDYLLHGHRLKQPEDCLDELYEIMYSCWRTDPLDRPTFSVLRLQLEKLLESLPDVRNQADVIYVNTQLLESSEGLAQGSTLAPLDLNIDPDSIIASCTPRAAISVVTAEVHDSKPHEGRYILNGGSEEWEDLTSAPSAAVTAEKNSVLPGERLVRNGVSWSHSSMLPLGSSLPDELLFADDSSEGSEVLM
Briefly: HTRF kinase activity biochemical assay, MER. To be noted: 10 μM ATP, 30 minutes pre-incubation; read-out: HTRF MERTK IC50.

A further assay has as its target T3, human TYRO3 (455-end) (Homo sapiens, UniProt Q06418).
T3 construct: TYRO3 (455-end); purchased SignalChem, Canada
T3 sequence (Q06418 455-890 limits assumed): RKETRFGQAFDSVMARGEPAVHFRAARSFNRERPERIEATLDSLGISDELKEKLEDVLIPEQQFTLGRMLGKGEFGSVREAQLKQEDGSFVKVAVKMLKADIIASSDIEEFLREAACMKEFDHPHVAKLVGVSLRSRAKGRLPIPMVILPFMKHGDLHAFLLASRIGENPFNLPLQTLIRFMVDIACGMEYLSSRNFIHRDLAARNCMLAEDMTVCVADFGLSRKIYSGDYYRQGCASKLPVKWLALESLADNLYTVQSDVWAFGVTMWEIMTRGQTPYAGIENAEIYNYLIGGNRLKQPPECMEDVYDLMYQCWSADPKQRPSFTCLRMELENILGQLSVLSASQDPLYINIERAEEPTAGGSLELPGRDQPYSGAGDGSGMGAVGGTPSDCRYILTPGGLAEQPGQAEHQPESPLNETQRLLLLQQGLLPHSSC
Briefly: HTRF kinase activity biochemical assay, TYRO3.

Where [1] appears, read: 10 μM ATP, 30 minutes pre-incubation, read-out: HTRF TYRO IC50.

Usually IC50 stands for the concentration that inhibits the measured activity by half. As to `Cn1cc(-c2cnc(N)c(C(=O)N[C@H]3CCC[C@@H]3OCc3ccc(-c4cnc5c(c4)CCCN5C4CCN(CCO)CC4)cc3)c2)cn1` [Example 162, 2-amino-N-{(1S,2S)-2-[(4-{8-[1-(2-hydroxyethyl)piperidin-4-yl]-5,6,7,8-tetrahydro-1,8-naphthyridin-3-yl}phenyl)methoxy]cyclopentyl}-5-(1-methyl-1H-pyrazol-4-yl)pyridine-3-carboxamide], the IC50 is less than 10 nM at human AXL (473-end), less than 10 nM on human MER (528-end) and 10 to 100 nM at human TYRO3 (455-end) (setting [1]).

Turning to `CC1(C)CN(C2CCN(CCO)CC2)c2ccc(-c3ccc(CO[C@H]4COC[C@@H]4NC(=O)c4cc(-c5cncc(F)c5)cnc4N)cc3)cc21` [Example 44, 6-amino-5′-fluoro-N-{(3S,4R)-4-[(4-{1-[1-(2-hydroxyethyl)piperidin-4-yl]-3,3-dimethyl-2,3-dihydro-1H-indol-5-yl}phenyl)methoxy]oxolan-3-yl}[3,3′-bipyridine]-5-carboxamide], the IC50 was 100 to 1000 nM on human AXL (473-end), less than 10 nM on human MER (528-end) and 100 to 1000 nM on human TYRO3 (455-end) (setting [1]).

Regarding `CN1CCN([C@H]2CCc3cc(-c4ccc(CO[C@H]5CCC[C@@H]5NC(=O)c5cc(-c6ccc(C#N)nc6)cnc5N)cc4)ccc32)CC1` [Example 154, 6-amino-6′-cyano-N-[(1S,2S)-2-({4-[(1S)-1-(4-methylpiperazin-1-yl)-2,3-dihydro-1H-inden-5-yl]phenyl}methoxy)cyclopentyl][3,3′-bipyridine]-5-carboxamide], the IC50 against human AXL (473-end) was less than 10 nM; at human MER (528-end) it was less than 10 nM; at human TYRO3 (455-end) (setting [1]) it was 100 to 1000 nM.

Turning to `CN1CCN([C@H]2CCCc3cc(-c4ccc(CO[C@H]5CCC[C@@H]5NC(=O)c5cc(-c6cccnc6F)cnc5N)cc4)ccc32)CC1` [Example 163, 6-amino-2′-fluoro-N-[(1S,2S)-2-({4-[(5S)-5-(4-methylpiperazin-1-yl)-5,6,7,8-tetrahydronaphthalen-2-yl]phenyl}methoxy)cyclopentyl][3,3′-bipyridine]-5-carboxamide], the IC50 at human AXL (473-end) was less than 10 nM; at human MER (528-end) it was less than 10 nM; on human TYRO3 (455-end) (setting [1]) it was 10 to 100 nM.

Consider `Cn1cc(-c2cnc(N)c(C(=O)N[C@H]3CCC[C@@H]3OCc3ccc(-c4cnc5c(c4)C(C)(C)C(=O)N5C4CCN(CCO)CC4)cc3)c2)cn1` [Example 76, 2-amino-N-{(1S,2S)-2-[(4-{1-[1-(2-hydroxyethyl)piperidin-4-yl]-3,3-dimethyl-2-oxo-2,3-dihydro-1H-pyrrolo[2,3-b]pyridin-5-yl}phenyl)methoxy]cyclopentyl}-5-(1-methyl-1H-pyrazol-4-yl)pyridine-3-carboxamide], for which the IC50 against human AXL (473-end) was in the range of 100 to 1000 nM; at human MER (528-end), 10 to 100 nM; at human TYRO3 (455-end) it was 100 to 1000 nM.

As for `Cn1cc(-c2cnc(N)c(C(=O)N[C@H]3CCC[C@@H]3OCc3ccc(-c4ccc5c(ccn5CC(=O)O)c4)cc3)c2)cn1` [Example 61, {5-[4-({[(1S,2S)-2-{[2-amino-5-(1-methyl-1H-pyrazol-4-yl)pyridine-3-carbonyl]amino}cyclopentyl]oxy}methyl)phenyl]-1H-indol-1-yl}acetic acid], the half-inhibitory concentration (IC50) was 10 to 100 nM on human AXL (473-end), 10 to 100 nM on human MER (528-end) and greater than 1000 nM at human TYRO3 (455-end) (setting [1]).

Turning to `Cc1nc(-c2cnc(N)c(C(=O)N[C@H]3CCC[C@@H]3OCc3ccc(-c4ccc5c(c4)CC[C@@H]5N4CCN(CCO)CC4)cc3)c2)cs1` [Example 180, 2-amino-N-{(1S,2S)-2-[(4-{(1S)-1-[4-(2-hydroxyethyl)piperazin-1-yl]-2,3-dihydro-1H-inden-5-yl}phenyl)methoxy]cyclopentyl}-5-(2-methyl-1,3-thiazol-4-yl)pyridine-3-carboxamide], the IC50 against human AXL (473-end) was less than 10 nM; on human MER (528-end) it was less than 10 nM; at human TYRO3 (455-end) (setting [1]), 10 to 100 nM.

`CC1(C)CC(N2CCN(CCO)CC2)c2ccc(-c3ccc(CO[C@H]4CCC[C@@H]4NC(=O)c4cc(-c5cccnc5F)cnc4N)cc3)cc21` (stereo partly drawn) [Example 119, 6-amino-2′-fluoro-N-{(1S,2S)-2-[(4-{1-[4-(2-hydroxyethyl)piperazin-1-yl]-3,3-dimethyl-2,3-dihydro-1H-inden-5-yl}phenyl)methoxy]cyclopentyl}[3,3′-bipyridine]-5-carboxamide]: the IC50 against human AXL (473-end) was less than 10 nM; at human MER (528-end), less than 10 nM; on human TYRO3 (455-end) (setting [1]), 10 to 100 nM.

As to `Cn1cc(-c2cnc(N)c(C(=O)N[C@H]3CCC[C@@H]3OCc3ccc(-c4ccc5c(c4)C4(CC4)CN(C4CCN(CCO)CC4)C5)cc3)c2)cn1` [Example 72, 2-amino-N-{(1S,2S)-2-[(4-{2′-[1-(2-hydroxyethyl)piperidin-4-yl]-2′,3′-dihydro-1′H-spiro[cyclopropane-1,4′-isoquinolin]-6′-yl}phenyl)methoxy]cyclopentyl}-5-(1-methyl-1H-pyrazol-4-yl)pyridine-3-carboxamide], the IC50 was greater than 1000 nM at human AXL (473-end), 100 to 1000 nM on human MER (528-end) and greater than 1000 nM on human TYRO3 (455-end) (setting [1]).

Take `COc1ccnc(N)c1C(=O)N[C@H]1CCC[C@@H]1OCc1ccc(-c2ccc3c(c2)CC[C@@H]3N2CCN(CCO)CC2)cc1` [Example 137, 2-amino-N-{(1S,2S)-2-[(4-{(1S)-1-[4-(2-hydroxyethyl)piperazin-1-yl]-2,3-dihydro-1H-inden-5-yl}phenyl)methoxy]cyclopentyl}-4-methoxypyridine-3-carboxamide]: the IC50 is less than 10 nM at human AXL (473-end), less than 10 nM at human MER (528-end) and 100 to 1000 nM on human TYRO3 (455-end) (setting [1]).

Regarding `CN1CCN([C@@H]2CC(C)(C)c3cc(-c4ccc(CO[C@H]5CCC[C@@H]5NC(=O)c5cc(-c6cnn(C)c6)cnc5N)cc4)ccc32)CC1` [Example 145, 2-amino-N-[(1S,2S)-2-({4-[(1R)-3,3-dimethyl-1-(4-methylpiperazin-1-yl)-2,3-dihydro-1H-inden-5-yl]phenyl}methoxy)cyclopentyl]-5-(1-methyl-1H-pyrazol-4-yl)pyridine-3-carboxamide], the values for the IC50 on human AXL (473-end), at human MER (528-end) and at human TYRO3 (455-end) (setting [1]) were 10 to 100 nM, 10 to 100 nM and greater than 1000 nM, respectively.

Consider `Cn1ccc(-c2cnc(N)c(C(=O)N[C@H]3CCC[C@@H]3OCc3ccc(-c4ccc5c(c4)CC[C@@H]5N4CCN(CCO)CC4)cc3)c2)cc1=O` [Example 92, 6-amino-N-{(1S,2S)-2-[(4-{(1S)-1-[4-(2-hydroxyethyl)piperazin-1-yl]-2,3-dihydro-1H-inden-5-yl}phenyl)methoxy]cyclopentyl}-1′-methyl-2′-oxo-1′,2′-dihydro[3,4′-bipyridine]-5-carboxamide], for which the IC50 on human AXL (473-end) was less than 10 nM; at human MER (528-end), less than 10 nM; at human TYRO3 (455-end) (setting [1]), 10 to 100 nM.

Take `CN1C(=O)Cc2cc(-c3ccc(CO[C@H]4CCC[C@@H]4NC(=O)c4cc(-c5cnn(C)c5)cnc4N)cc3)ccc21` [Example 3, 2-amino-N-[(1S,2S)-2-{[4-(1-methyl-2-oxo-2,3-dihydro-1H-indol-5-yl)phenyl]methoxy}cyclopentyl]-5-(1-methyl-1H-pyrazol-4-yl)pyridine-3-carboxamide]: the results for the IC50 against human AXL (473-end), at human MER (528-end) and on human TYRO3 (455-end) (setting [1]) were 100 to 1000 nM, 10 to 100 nM and greater than 1000 nM, respectively.

As to `Cn1cc(-c2cnc(N)c(C(=O)N[C@H]3CCC[C@@H]3OCc3ccc(-c4ccc5c(c4)C4(CC4)CN5C4CCN(CCO)CC4)cc3)c2)cn1` [Example 28, 2-amino-N-{(1S,2S)-2-[(4-{1′-[1-(2-hydroxyethyl)piperidin-4-yl]-1′,2′-dihydrospiro[cyclopropane-1,3′-indol]-5′-yl}phenyl)methoxy]cyclopentyl}-5-(1-methyl-1H-pyrazol-4-yl)pyridine-3-carboxamide], the IC50 against human AXL (473-end), at human MER (528-end) and at human TYRO3 (455-end) (setting [1]) was 10 to 100 nM in each case.
